Source: ChEMBL document CHEMBL1201862, “PubChem BioAssay data set” (2004)
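Dose response: 5 concentrations. Exposure: 48 h. Format: 96-well plates. Endpoint: linear interpolation; highest concentration if not reached. At the GI50, growth is halved.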 The source made the active and inactive calls. No stated cut-off is given here; in the data, active = GI50 up to about 1.1 µM and inactive = higher.

Assays:
Assay in all cases: inhibition of tumour cell growth, NCI panel, 48 h
786-0 = tested on: 786-0
A549 = tested on: A549
ACHN = tested on: ACHN
CAKI-1 = tested on: CAKI-1
CCRF-CEM = tested on: CCRF-CEM
COLO 205 = tested on: COLO 205
DLD-1 = tested on: DLD-1
DMS-114 = tested on: DMS-114
DMS-273 = tested on: DMS-273
EKVX = tested on: EKVX
HCC 2998 = tested on: HCC 2998
HCT-116 = tested on: HCT-116
HCT-15 = tested on: HCT-15
HL-60 = tested on: HL-60
HOP-62 = tested on: HOP-62
HOP-92 = tested on: HOP-92
HT-29 = tested on: HT-29
K562 = tested on: K562
KM-20L2 = tested on: KM-20L2
KM12 = tested on: KM12
LOX IMVI = tested on: LOX IMVI
LXFL 529 = tested on: LXFL 529
M14 = tested on: M14
M19-MEL = tested on: M19-MEL
MOLT-4 = tested on: MOLT-4
Malme-3M = tested on: Malme-3M
NCI-H226 = tested on: NCI-H226
NCI-H23 = tested on: NCI-H23
NCI-H460 = tested on: NCI-H460
NCI-H522 = tested on: NCI-H522
OVCAR-3 = tested on: OVCAR-3
OVCAR-4 = tested on: OVCAR-4
OVCAR-5 = tested on: OVCAR-5
OVCAR-8 = tested on: OVCAR-8
RPMI-8226 = tested on: RPMI-8226
RXF 393 = tested on: RXF 393
SF-268 = tested on: SF-268
SF-295 = tested on: SF-295
SF-539 = tested on: SF-539
SK-MEL-28 = tested on: SK-MEL-28
SK-MEL-2 = tested on: SK-MEL-2
SK-MEL-5 = tested on: SK-MEL-5
SK-OV-3 = tested on: SK-OV-3
SN12C = tested on: SN12C
SNB-19 = tested on: SNB-19
SNB-75 = tested on: SNB-75
SNB-78 = tested on: SNB-78
SR = tested on: SR
SW-620 = tested on: SW-620
TK-10 = tested on: TK-10
U-251 = tested on: U-251
UACC-257 = tested on: UACC-257
UACC-62 = tested on: UACC-62
UO-31 = tested on: UO-31
XF498 = tested on: XF498
IGROV-1 = tested on: IGROV-1

Compound: N#Cc1ccc(Nc2cnc3ccc(N)cc3n2)cc1
- GI50 (786-0): > 100 µM (inactive)
- GI50 (A549): > 100 µM (inactive)
- GI50 (ACHN): > 100 µM (inactive)
- GI50 (CAKI-1): > 100 µM (inactive)
- GI50 (CCRF-CEM): > 100 µM (inactive)
- GI50 (COLO 205): > 100 µM (inactive)
- GI50 (DLD-1): > 100 µM (inactive)
- GI50 (DMS-114): > 100 µM (inactive)
- GI50 (DMS-273): > 100 µM (inactive)
- GI50 (EKVX): > 100 µM (inactive)
- GI50 (HCC 2998): > 100 µM (inactive)
- GI50 (HCT-116): > 100 µM (inactive)
- GI50 (HCT-15): > 100 µM
- GI50 (HL-60): > 100 µM (inactive)
- GI50 (HOP-62): > 100 µM (inactive)
- GI50 (HOP-92): > 100 µM (inactive)
- GI50 (HT-29): > 100 µM (inactive)
- GI50 (K562): > 100 µM (inactive)
- GI50 (KM-20L2): > 100 µM (inactive)
- GI50 (KM12): > 100 µM (inactive)
- GI50 (LOX IMVI): > 100 µM (inactive)
- GI50 (LXFL 529): > 100 µM (inactive)
- GI50 (M14): > 100 µM (inactive)
- GI50 (M19-MEL): > 100 µM (inactive)
- GI50 (MOLT-4): > 100 µM (inactive)
- GI50 (Malme-3M): > 100 µM (inactive)
- GI50 (NCI-H226): > 100 µM (inactive)
- GI50 (NCI-H23): > 100 µM (inactive)
- GI50 (NCI-H460): > 100 µM (inactive)
- GI50 (NCI-H522): > 100 µM (inactive)
- GI50 (OVCAR-3): > 100 µM (inactive)
- GI50 (OVCAR-4): > 100 µM (inactive)
- GI50 (OVCAR-5): > 100 µM (inactive)
- GI50 (OVCAR-8): > 100 µM (inactive)
- GI50 (RPMI-8226): > 100 µM (inactive)
- GI50 (RXF 393): > 100 µM (inactive)
- GI50 (SF-268): > 100 µM (inactive)
- GI50 (SF-295): > 100 µM (inactive)
- GI50 (SF-539): > 100 µM (inactive)
- GI50 (SK-MEL-28): > 100 µM (inactive)
- GI50 (SK-MEL-2): > 100 µM (inactive)
- GI50 (SK-MEL-5): > 100 µM (inactive)
- GI50 (SK-OV-3): > 100 µM (inactive)
- GI50 (SN12C): > 100 µM (inactive)
- GI50 (SNB-19): > 100 µM (inactive)
- GI50 (SNB-75): > 100 µM (inactive)
- GI50 (SNB-78): > 100 µM (inactive)
- GI50 (SR): 91.4 µM (inactive)
- GI50 (SW-620): > 100 µM (inactive)
- GI50 (TK-10): > 100 µM (inactive)
- GI50 (U-251): > 100 µM (inactive)
- GI50 (UACC-257): > 100 µM (inactive)
- GI50 (UACC-62): > 100 µM (inactive)
- GI50 (UO-31): > 100 µM (inactive)
- GI50 (XF498): > 100 µM (inactive)

Compound: COc1ccc(/C=C/C(C(=O)O)C(=O)O)cc1
- GI50 (786-0): > 100 µM (inactive)
- GI50 (A549): > 100 µM (inactive)
- GI50 (ACHN): 92 µM (inactive)
- GI50 (CAKI-1): > 100 µM (inactive)
- GI50 (CCRF-CEM): 26.2 µM (inactive)
- GI50 (COLO 205): > 100 µM (inactive)
- GI50 (DLD-1): > 100 µM (inactive)
- GI50 (DMS-114): > 100 µM (inactive)
- GI50 (DMS-273): > 100 µM (inactive)
- GI50 (EKVX): 78.9 µM (inactive)
- GI50 (HCC 2998): > 100 µM (inactive)
- GI50 (HCT-116): > 100 µM (inactive)
- GI50 (HCT-15): 45.6 µM
- GI50 (HL-60): 24.3 µM (inactive)
- GI50 (HOP-62): > 100 µM (inactive)
- GI50 (HOP-92): 72.1 µM (inactive)
- GI50 (HT-29): 78.9 µM (inactive)
- GI50 (IGROV-1): > 100 µM (inactive)
- GI50 (K562): 32.4 µM (inactive)
- GI50 (KM-20L2): 91.6 µM (inactive)
- GI50 (KM12): 50.7 µM (inactive)
- GI50 (LOX IMVI): 16.1 µM (inactive)
- GI50 (LXFL 529): 36.4 µM (inactive)
- GI50 (M14): 75.7 µM (inactive)
- GI50 (M19-MEL): 61.8 µM (inactive)
- GI50 (MOLT-4): 25.8 µM (inactive)
- GI50 (Malme-3M): 69.8 µM (inactive)
- GI50 (NCI-H226): > 100 µM (inactive)
- GI50 (NCI-H23): > 100 µM (inactive)
- GI50 (NCI-H460): > 100 µM (inactive)
- GI50 (NCI-H522): 30.8 µM (inactive)
- GI50 (OVCAR-3): 47.9 µM (inactive)
- GI50 (OVCAR-4): 35.2 µM (inactive)
- GI50 (OVCAR-5): 78.5 µM (inactive)
- GI50 (OVCAR-8): > 100 µM (inactive)
- GI50 (RPMI-8226): 32.8 µM (inactive)
- GI50 (SF-268): 67.5 µM (inactive)
- GI50 (SF-295): > 100 µM (inactive)
- GI50 (SF-539): > 100 µM (inactive)
- GI50 (SK-MEL-28): 22.5 µM (inactive)
- GI50 (SK-MEL-2): > 100 µM (inactive)
- GI50 (SK-MEL-5): 76.6 µM (inactive)
- GI50 (SK-OV-3): > 100 µM (inactive)
- GI50 (SN12C): 51.3 µM (inactive)
- GI50 (SNB-19): 70.5 µM (inactive)
- GI50 (SNB-78): 48.1 µM (inactive)
- GI50 (SR): 34.8 µM (inactive)
- GI50 (SW-620): 31.5 µM (inactive)
- GI50 (TK-10): > 100 µM (inactive)
- GI50 (U-251): > 100 µM (inactive)
- GI50 (UACC-257): 97.9 µM (inactive)
- GI50 (UACC-62): 49.2 µM (inactive)
- GI50 (UO-31): 64.3 µM (inactive)
- GI50 (XF498): > 100 µM (inactive)
